Measured values as given in the supplement of paper PMC4862054.

How the values were obtained:
Conditions in all cases: incubation time: 72 h
CAL-120 [1] = experiment: normalised response (% of control), CellTox Green; higher = less cell death (100 = DMSO, 0 = benzethonium chloride kill control)
How it was run: (§1)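 Breast cancer cell lines, seeded at 20 µl suspension per well, were incubated for 72 h in 384-well plates containing compound at 5 concentrations. These concentrations rose in 10-fold steps over a 10,000-fold range set for each compound. CellTox Green fluorescence (485/520 nm) was read, then CellTiter-Glo luminescence after 10 min at room temperature, and each plate was normalised to 0.1 % DMSO (100) and a positive kill control (0). Values are normalised signals, each at one concentration.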

HDQ-P1 [2] = experiment: as above
How it was run: as §1

CAL-51 [3] = experiment: as above
How it was run: as §1

CAL-85-1 [4] = experiment: as above
How it was run: as §1

MCF-10A [5] = experiment: as above
How it was run: as §1

MDA-MB-468 [6] = experiment: as above
How it was run: as §1

MDA-MB-231 [7] = experiment: as above
How it was run: as §1

HCC1143 [8] = experiment: as above
How it was run: as §1

MFM-223 [9] = experiment: as above
How it was run: as §1

BT-549 [10] = experiment: as above
How it was run: as §1

HCC1599 [11] = experiment: as above
How it was run: as §1

MDA-MB-453 [12] = experiment: as above
How it was run: as §1

Hs578T [13] = experiment: as above
How it was run: as §1

BT-474 [14] = experiment: as above
How it was run: as §1

DU-4475 [15] = experiment: as above
How it was run: as §1

HCC1937 [16] = experiment: as above
How it was run: as §1

CAL-120 [17] = experiment: normalised response (% of control), CellTiter-Glo; higher = more viable cells (100 = DMSO, 0 = benzethonium chloride kill control)
Experimental: (§2)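 DSRT, 72 h incubation, CellTox Green / CellTiter-Glo readout. Signal is normalised to DMSO and benzethonium chloride controls. Value is the normalised response at dose 3.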

HDQ-P1 [18] = experiment: as above
Experimental: as §2

CAL-51 [19] = experiment: as above
Experimental: as §2

CAL-85-1 [20] = experiment: as above
Experimental: as §2

MCF-10A [21] = experiment: as above
Experimental: as §2

MDA-MB-468 [22] = experiment: as above
Experimental: as §2

MDA-MB-231 [23] = experiment: as above
Experimental: as §2

MDA-MB-436 [24] = experiment: as above
Experimental: as §2

HCC1143 [25] = experiment: as above
Experimental: as §2

MFM-223 [26] = experiment: as above
Experimental: as §2

BT-549 [27] = experiment: as above
Experimental: as §2

SK-BR-3 = experiment: as above
Experimental: as §2

HCC1599 [28] = experiment: as above
Experimental: as §2

MDA-MB-453 [29] = experiment: as above
Experimental: as §2

Hs578T [30] = experiment: as above
Experimental: as §2

BT-474 [31] = experiment: as above
Experimental: as §2

DU-4475 [32] = experiment: as above
Experimental: as §2

HCC1937 [33] = experiment: as above
Experimental: as §2

CAL-148 [34] = experiment: as above
Experimental: as §2

MDA-MB-436 [35] = experiment: normalised response (% of control), CellTox Green; higher = less cell death (100 = DMSO, 0 = benzethonium chloride kill control)
How it was run: as §1

CAL-148 [36] = experiment: as above
How it was run: as §1

SMILES | normalised response (CAL-120 [1]) [%] | normalised response (HDQ-P1 [2]) [%] | normalised response (CAL-51 [3]) [%] | normalised response (CAL-85-1 [4]) [%] | normalised response (MCF-10A [5]) [%] | normalised response (MDA-MB-468 [6]) [%] | normalised response (MDA-MB-231 [7]) [%] | normalised response (HCC1143 [8]) [%] | normalised response (MFM-223 [9]) [%] | normalised response (BT-549 [10]) [%] | normalised response (HCC1599 [11]) [%] | normalised response (MDA-MB-453 [12]) [%] | normalised response (Hs578T [13]) [%] | normalised response (BT-474 [14]) [%] | normalised response (DU-4475 [15]) [%] | normalised response (HCC1937 [16]) [%] | normalised response (CAL-120 [17]) [%] | normalised response (HDQ-P1 [18]) [%] | normalised response (CAL-51 [19]) [%] | normalised response (CAL-85-1 [20]) [%] | normalised response (MCF-10A [21]) [%] | normalised response (MDA-MB-468 [22]) [%] | normalised response (MDA-MB-231 [23]) [%] | normalised response (MDA-MB-436 [24]) [%] | normalised response (HCC1143 [25]) [%] | normalised response (MFM-223 [26]) [%] | normalised response (BT-549 [27]) [%] | normalised response (SK-BR-3) [%] | normalised response (HCC1599 [28]) [%] | normalised response (MDA-MB-453 [29]) [%] | normalised response (Hs578T [30]) [%] | normalised response (BT-474 [31]) [%] | normalised response (DU-4475 [32]) [%] | normalised response (HCC1937 [33]) [%] | normalised response (CAL-148 [34]) [%] | normalised response (MDA-MB-436 [35]) [%] | normalised response (CAL-148 [36]) [%]
Cn1cc(C2=Nc3cc(NC(=O)C(N)C4CCCCC4)cc4c3C2=CNNC4=O)cn1 (stereo not given) (100 nM) | 92 | 107 | 96.1 | 73 | 62.9 | 106 | 96.3 | 101 | 98.5 | 87.2 | 89.5 | 85 | 98.8 | 97.7 | 96.7 | 76.5 | 89 | 95.2 | 96.7 | 87.1 | 81.7 | 88.8 | 93.5 | 91.6 | 90.9 | 77.8 | 93.5 | 74.1 | 63.3 | 74.1 | 90.7 | 94.4 | 95.1 | 95.1 | 82.7 |  | 
COc1cc2c(cc1O)CC[C@@H]1[C@@H]2CC[C@]2(C)[C@@H](O)CC[C@@H]12 [2-methoxyestradiol] (100 nM) | 98 | 107 | 78.3 | 87.6 | 61.8 | 69.5 | 99.3 |  | 102 | 110 | 102 | 101 | 103 | 94 | 98.7 | 97.3 | 101 | 103 | 63.5 | 97.3 | 94.5 | 103 | 102 | 101 | 100 | 94.2 | 95.5 | 89 | 89.4 | 91.1 | 102 | 98.5 | 101 | 93.4 | 90.6 | 87.4 | 56.1
CC1(C)CCC(CN2CCN(c3ccc(C(=O)NS(=O)(=O)c4ccc(NCC5CCOCC5)c([N+](=O)[O-])c4)c(Oc4cnc5[nH]ccc5c4)c3)CC2)=C(c2ccc(Cl)cc2)C1 [ABT-199] (100 nM) | 101 | 93.6 | 101 | 94.6 | 81.7 |  | 105 | 91.6 | 79.9 |  | 99.2 | 101 | 104 | 101 | 99.3 | 89.3 | 101 | 104 | 92.4 | 101 | 98.2 | 93.6 | 99.3 | 96.7 | 102 | 99.2 | 100 | 101 | 94.2 | 90.7 | 107 | 96.7 | 102 | 98.2 | 98.9 | 83 | 84.2
O=C1CN2Cc3c(ccc(Cl)c3Cl)N=C2N1 [Anagrelide] (100 nM) | 98 | 101 | 51.3 | 104 | 100 | 146 | 96.2 | 108 | 68.7 | 77.3 | 86.8 | 92.5 | 104 | 99.4 | 98.5 | 103 | 96 | 97.2 | 63.1 | 97 | 98.4 | 99.5 | 94.7 | 94.3 | 101 | 101 | 105 | 103 | 104 | 111 | 98.5 | 93.7 | 96.9 | 95.8 | 94.1 | 105 | 100
Nc1ncn([C@@H]2O[C@H](CO)[C@@H](O)[C@H]2O)c(=O)n1 [Azacitidine] (100 nM) | 96.9 | 64.8 | 99.3 | 108 | 87 | 115 | 88.1 | 56 | 97.8 | 99.9 | 98 | 83.8 | 103 | 101 | 98.2 | 99.4 | 96.3 | 103 | 99.8 | 99.1 | 103 | 96.4 | 98.1 | 99 | 98.6 | 98 | 101 | 96 | 100 | 89 | 100 | 102 | 91.1 | 97 | 101 | 79.5 | 103
O=NN(CCCl)C(=O)NCCCl [Carmustine] (100 nM) | 95.2 | 106 | 99.1 | 101 | 93.4 | 52.9 | 100 | 101 | 101 | 90.8 | 97.9 | 91.5 | 100 | 99.1 | 95.1 | 103 | 95.5 | 100 | 85 | 101 | 92.5 | 101 | 97.3 | 101 | 100 | 98.3 | 111 | 99.7 | 88 | 101 | 105 | 97.7 | 101 | 95.8 | 92.3 | 61.7 | 100
CC(=O)O[C@@]12CO[C@@H]1C[C@H](O)[C@@]1(C)C(=O)[C@H](O)C3=C(C)[C@@H](OC(=O)[C@H](O)[C@@H](NC(=O)OC(C)(C)C)c4ccccc4)C[C@@](O)([C@@H](OC(=O)c4ccccc4)[C@H]21)C3(C)C [Docetaxel] (10 nM) | 88.8 | -5.27 | 11.5 | 26.6 | 56.1 | 104 | -111 | 88.9 | 77.9 | 63.4 | 95.8 | 99.3 | 39.5 | 65.8 | 94 | 24.7 | 61.7 | 69.4 | 43.1 | 26.6 | 46.2 | 22.7 | 53.4 | 40.7 | 35.5 | 54.3 | 20.5 | 12.2 | 71.9 | 61.2 | 28.1 | 67.8 | 68.8 | 67.3 | 38.2 | 79.8 | 61.8
Nc1nc2[nH]cnc2c(=S)[nH]1 [Thioguanine] (100 nM) | 100 | 104 | 108 | 111 | 75.6 | 66.4 | 105 | 59.1 | 98.7 | 103 | 97.1 | 99 | 90.5 | 102 | 101 | 96.7 | 108 | 90.8 | 109 | 91.9 | 97.4 | 98.8 | 93.5 | 97 | 101 | 96.8 | 95.9 | 98.9 | 96.5 | 112 | 101 | 83.4 | 95.7 | 96.3 | 102 | 89 | 
